Source: patent US9012635B2, “Pyridone amides and analogs exhibiting anti-cancer and anti-proliferative activities” (Deciphera Pharmaceuticals, LLC, priority 2013, dated 2015)
Structures can show the parent of a compound that is named as a salt.

Legend:
[1] = tested on: A549 cells; experiment: A549 cell migration assay (HGF-stimulated); assay type: cell-based; details: Homo sapiens, 40 ng/mL HGF, 48 h migration
Experimental: A549 cells (catalog # CCL-185) were obtained from the American Type Culture Collection (ATCC, Manassas, Va.). Briefly, cells were grown in DMEM supplemented with 10% characterized fetal bovine serum (Invitrogen, Carlsbad, Calif.) at 37 degrees Celsius, 5% CO2, 95% humidity. Cells were allowed to expand until reaching 70-95% confluency at which point they were subcultured or harvested for assay use.
Forty thousand cells in DMEM supplemented with 10% characterized fetal bovine serum (FBS; Invitrogen, Carlsbad, Calif.) were added per well in a 96-well black clear bottom Oris Collagen-Coated cell migration plate containing cell seeding stoppers (Platypus Technologies, Madison, Wis.). Cells were then incubated overnight at 37 degrees Celsius, 5% CO2, 95% humidity. Cell seeding stoppers were removed creating an area for cell migration in the center of each well of the plate. Media was replaced with DMEM supplemented with 0.5% FBS. […] A plate mask (Platypus Technologies, Madison, Wis.) that obscures each well except for the area for cell migration in the center of the well was attached to the bottom of the migration plate and fluorescence was detected using a fluorescent plate reader. Data was analyzed using Prism software (Graphpad, San Diego, Calif.) to calculate IC50 values.

[2] = target: T1, c-KIT kinase (Seq. ID No. 1) (Homo sapiens, UniProt P10721); experiment: c-KIT kinase assay (pyruvate kinase/lactate dehydrogenase coupled, A340); assay type: biochemical; details: enzymatic assay, ATP 200 μM; read-out: cKIT
T1 construct: c-KIT (cKIT residues T544-V976, from ProQinase, 5.4 nM); purchased ProQinase
Experimental: Activity of c-KIT kinase (Seq. ID No. 1) was determined by following the production of ADP from the kinase reaction through coupling with the pyruvate kinase/lactate dehydrogenase system (e.g., Schindler et al. Science 2000, 289, pp. 1938-1942). In this assay, the oxidation of NADH (thus the decrease at A340 nm) was continuously monitored spectrophotometrically. The reaction mixture (100 μl) contained c-KIT (cKIT residues T544-V976, from ProQinase, 5.4 nM), polyE4Y (1 mg/mL), MgCl2 (10 mM), pyruvate kinase (4 units), lactate dehydrogenase (0.7 units), phosphoenol pyruvate (1 mM), and NADH (0.28 mM) in 90 mM Tris buffer containing 0.2% octyl-glucoside and 1% DMSO, pH 7.5. Test compounds were incubated with c-KIT (Seq. ID No. 1) and other reaction reagents at 22° C. for less than 2 min before ATP (200 μM) was added to start the reaction. The absorption at 340 nm was monitored continuously for 0.5 hours at 30° C. on Polarstar Optima plate reader (BMG). The reaction rate was calculated using the 0 to 0.5 h time frame. Percent inhibition was obtained by comparison of reaction rate with that of a control (i.e., with no test compound). IC50 values were calculated from a series of percent inhibition values determined at a range of inhibitor concentrations using software routines as implemented in the GraphPad Prism software package.

[3] = tested on: MKN-45 human gastric adenocarcinoma xenograft; experiment: MKN-45 xenograft study; assay type: in vivo; details: nude mice, oral gavage, after 14 days
Experimental: (§1) To evaluate the in vivo anti-cancer activity compounds of formula I, a MKN-45 human gastric adenocarcinoma xenograft was employed. Briefly, MKN-45 cells were obtained from the Japan Health Sciences Foundation and expanded in RPMI medium which was supplemented with 20% FBS, 1% PSG. The growth environment was maintained in an incubator with a 5% CO2 atmosphere at 37° C. Cells were harvested and re-suspended using 50% serum-free media and 50% Matrigel® to generate a stock concentration of 5×10^6 cells/mL.
Seven to 8 week old female Harlan nude mice (Hsd:AthymicNude-Fox1nu) were injected with 200 μL of cell suspension subcutaneously, just below the right axilla. All procedures carried out in this experiment were conducted in compliance with all the laws, regulations and guidelines of the National Institutes of Health (NIH). Treatment began when the mean tumor burden was approximately 150 mg. All mice were dosed with test compound by oral gavage. Body weights and tumor measurements were recorded three times weekly. Tumor burden (mg) was estimated from caliper measurements by the formula for the volume of a prolate ellipsoid assuming unit density as: Tumor burden (mg)=(L×W2)/2, where L and W were the respective orthogonal tumor length and width measurements (mm). […]

[4] = tested on: MET activity in MKN-45 xenograft tumors; experiment: pMET inhibition in a MKN-45 xenograft pharmacodynamic model; assay type: in vivo; details: nude mice, single oral 10 mg/kg dose, out to 8 h post dose
Experimental: as §1, with “examine” for “evaluate”, “modulation of MET” for “anti-cancer”, “activity by” for “activity”, “I, MKN-45 xenograft tumors were excised at varying time points following” for “I,”, “single oral dose.” for “MKN-45 human gastric adenocarcinoma xenograft was employed.”, “PSG (Penicillin/Streptomycin/Glutamine).” for “PSG.”
Seven to 8 week old female Harlan nude mice (Hsd:AthymicNude-Fox1nu) were injected with 200 μL of cell suspension subcutaneously, just below the right axilla. All procedures carried out in this experiment were conducted in compliance with all the laws, regulations and guidelines of the National Institutes of Health (NIH). Treatment began when the mean tumor burden was approximately 300 mg. All mice were dosed with test compound by oral gavage. Plasma and tumor samples were collected from three mice at each timepoint 2, 4, 6, 8, 12, 18, and 24 hours after dosing. […] Plasma levels of MET inhibitors were determined by mass spectrometer analysis.

T1 sequence (P10721 with tags, fused parts or gaps): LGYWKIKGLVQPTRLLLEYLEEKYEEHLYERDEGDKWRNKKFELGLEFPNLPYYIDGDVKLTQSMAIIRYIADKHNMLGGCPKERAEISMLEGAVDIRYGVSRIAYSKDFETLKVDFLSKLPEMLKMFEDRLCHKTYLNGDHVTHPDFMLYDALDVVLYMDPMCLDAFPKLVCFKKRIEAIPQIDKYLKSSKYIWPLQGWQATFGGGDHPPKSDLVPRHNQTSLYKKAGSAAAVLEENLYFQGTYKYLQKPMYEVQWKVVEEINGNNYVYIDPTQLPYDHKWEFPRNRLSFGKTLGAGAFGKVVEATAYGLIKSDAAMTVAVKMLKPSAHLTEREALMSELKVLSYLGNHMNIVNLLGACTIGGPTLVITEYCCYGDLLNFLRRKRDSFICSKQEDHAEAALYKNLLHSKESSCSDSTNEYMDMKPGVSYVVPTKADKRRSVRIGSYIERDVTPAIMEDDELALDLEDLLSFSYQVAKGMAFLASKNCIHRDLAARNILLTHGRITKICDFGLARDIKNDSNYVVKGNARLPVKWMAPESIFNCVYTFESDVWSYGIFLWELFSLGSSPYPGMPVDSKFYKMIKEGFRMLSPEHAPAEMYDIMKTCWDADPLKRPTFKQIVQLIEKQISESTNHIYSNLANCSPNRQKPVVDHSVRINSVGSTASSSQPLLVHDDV

Row | SMILES | IC50 [1] [µM] | IC50 [2] [µM] | % T/C ([3]; 10 mg/kg twice daily) [% T/C] | % T/C ([3]; 30 mg/kg twice daily) [% T/C] | inhibition of cFOS mRNA levels [4] [%]
1 | Cn1cc(-c2cc(Oc3cc(F)c(NC(=O)c4cccn(-c5ccc(F)cc5)c4=O)cc3F)ccn2)cn1 [Example 1, N-(2,5-difluoro-4-((2-(1-methyl-1H-pyrazol-4-yl)pyridin-4-yl)oxy)phenyl)-1-(4-fluorophenyl)-2-oxo-1,2-dihydropyridine-3-carboxamide] | 0.1 to 1 | ≤ 0.1 | – | – | –
2 | CCOc1ccn(-c2ccc(F)cc2)c(=O)c1C(=O)Nc1cc(F)c(Oc2ccnc(-c3cnn(C)c3)c2)cc1F [Example 2, N-(2,5-difluoro-4-(2-(1-methyl-1H-pyrazol-4-yl)pyridin-4-yloxy)phenyl)-4-ethoxy-1-(4-fluorophenyl)-2-oxo-1,2-dihydropyridine-3-carboxamide] | ≤ 0.1 | > 1 | 19 | 12 | 80
3 | O=C(Nc1cc(F)c(Oc2ccnc(-c3cnn(CCO)c3)c2)cc1F)c1cccn(-c2ccc(F)cc2)c1=O [Example 3, N-(2,5-difluoro-4-((2-(1-(2-hydroxyethyl)-1H-pyrazol-4-yl)pyridin-4-yl)oxy)phenyl)-1-(4-fluorophenyl)-2-oxo-1,2-dihydropyridine-3-carboxamide hydrochloride] | – | > 1 | – | – | –
4 | CCNc1ccn(-c2ccc(F)cc2)c(=O)c1C(=O)Nc1cc(F)c(Oc2ccnc(-c3cnn(C)c3)c2)cc1F [Example 5, N-(2,5-difluoro-4-((2-(1-methyl-1H-pyrazol-4-yl)pyridin-4-yl)oxy)phenyl)-4-(ethylamino)-1-(4-fluorophenyl)-2-oxo-1,2-dihydropyridine-3-carboxamide] | – | > 1 | – | – | –
